Assay results as given in patent US20230293535A1, “ERBB/BTK INHIBITORS” (Dizal (Jiangsu) Pharmaceutical Co., Ltd., priority 2018, published 2023).
Structures can show the parent of a compound that is named as a salt. Where two headings read alike, the source gives them in different places.

Experiments:
Assay type in all cases: cell-based
[1] = target: T1, human EGFR exon 20 V769_D770insASV (Homo sapiens, UniProt P00533, INS769ASV); experiment: EGFR Exon20 ASV insertion cellular phosphorylation inhibition (MSD pEGFR Y1068/total EGFR); conditions: Ba/F3 EGFR ASV ins cells, 4 h compound, p-EGFR(Y1068)/total EGFR;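 also: electrochemiluminescent readout on an MSD SECTOR Imager, IL3-independent transduced cells in medium with 1% FBS, compound concentration series at 37 °C and 5% CO2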
T1 construct: expressed in transfected cells; host or cells: Ba/F3 (DSMZ ACC-300), lentiviral transduction, puromycin selection, IL3 depletion

Ba/F3 EGFR ASV ins cells = experiment: Cell proliferation, Ba/F3 EGFR ASV ins (CellTiter-Glo, 72 h); conditions: Ba/F3 EGFR, 72 h;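 also: IL3-independent Ba/F3 cells transduced with EGFR V769_D770insASV, cellular ATP luminescence after compound exposure, growth relative to DMSO control with the day-0 baseline reading subtracted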
[2] = test system: NCI-H1975 EGFR L858R/T790M cells; experiment: Cell proliferation, NCI-H1975 EGFR L858R/T790M (CellTiter-Glo, 72 h); conditions: Homo sapiens, NCI-H1975, 72 h;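 also: viable cells quantified by luciferase-based ATP luminescence, proliferation expressed relative to DMSO-treated wells (100%) after subtracting a parallel plate read at the time of dosing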
[3] = test system: Her2 exon 20 insertion YVMA transduced NIH-3T3 cell line; experiment: Cell proliferation, Her2 YVMAins NIH-3T3 (CellTiter-Glo, 72 h); conditions: Mus musculus, NIH3T3, 72 h, Her2 YVMAins cells, 72 h proliferation; read-out: Her2 Exon 20 YVMA insertion GI50;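 also: viable cells quantified by ATP luminescence, growth over a day-zero baseline plate expressed as percent of DMSO control growth, compound dilution series in 10% FBS medium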
TMD-8 cells = experiment: BTK (wt) cell proliferation, TMD-8 (CellTiter-Glo, 72 h); conditions: Homo sapiens, TMD8, 72 h, TMD-8 cells, 72 h, CellTiter-Glo; read-out: BTK WT TMD-8 GI50;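 also: viable cells quantified by ATP-based luminescence, proliferation expressed as percent of DMSO control after subtracting a time-zero baseline plate read at dosing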
Experimental: (§1) OCI-LY-10 at 3,750 cells/well, TMD-8 and Ri-1 at 2,000 cells/well, and DB at 1,250 cells/well, respectively, were sorted into 384-well plates in RPMI1640 medium with 10% FBS. After overnight incubation, all cells were incubated with compound at a series of concentrations. Meanwhile, a duplicated plate of each cell line was prepared for measuring G0 value. The dosed plates were further incubated for 72 hours and the number of viable cells was measured by CellTiter-Glo® Luminescent Cell Viability Assay (Promega), a luminescent method for determining the number of viable cells through measurement of cellular ATP concentration using Envision plate reader (PerkinElmer). The percentage of proliferation was calculated as: % Proliferation = 100 × (G3 value of sample well - G0 value)/(G3 value of DMSO control - G0 value).

WT EGFR cell line A-431 = experiment: Cell proliferation, WT EGFR A431 (CellTiter-Glo, 72 h); conditions: Homo sapiens, A-431, 72 h;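 also: proliferation from a luminescent ATP viability signal, expressed as 100 × (treated minus time-zero plate) over (DMSO control minus time-zero plate), cells grown with 10% FBS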
OCI-LY-10 cells = experiment: BTK (wt) cell proliferation, OCI-LY-10 (CellTiter-Glo, 72 h); conditions: Homo sapiens, OCI-Ly10, 72 h, OCI-LY-10 cells, 72 h, CellTiter-Glo; read-out: BTK WT OCI-LY-10 GI50;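 also: viable cells quantified via cellular ATP luminescence, proliferation given as percent of DMSO control after subtracting a duplicate plate read at time of dosing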
[4] = target: T2, human Her2 exon 20 insertion mutation YVMA (Homo sapiens, UniProt P04626, INS775YVMA); experiment: Her2 Exon 20 YVMA insertion cellular phosphorylation inhibition (MSD p-Her2 Y1248/total Her2); conditions: Her2 YVMAins cells, 4 h compound;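 also: lentivirally transduced NIH-3T3 cells in 1% FBS medium, electrochemiluminescent MSD read-out, graded compound concentrations at 37 °C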
T2 construct: expressed in transfected cells; host or cells: NIH-3T3, lentiviral transduction, puromycin selection
Experimental: The resulting cell line expressed phosphorylated Her2 protein and its proliferation depended on the mutation gene, which could be used for in vitro PD and anti-proliferation assays.
(§2) One day before the test, WT or mutant cells were seeded in 96 well plates at appropriate concentrations with corresponding growth media supplemented with 1% FBS, and incubated overnight. The next day, tested compounds at a series of concentrations were added into each individual well of the plates, and the plates were incubated for 4 h at 37° C. with 5% CO2.
(§3) The EGFR (Y1068) phosphorylation level (activity) of cells in each well were then measured with MSD kit named “MULTI-SPOT®96 4-Spot HB Prototype EGFR Triplex [sequence]: pEGFR(Tyr1068),pEGFR(Tyr1173), Total EGFR” according to the manufacturer’s instruction (MESO SCALE DISCOVERY, Cat# N45ZB-1). The assay is an electrochemiluminescent method for determining both phosphorylated and total EGFR of cells with an MSD SECTOR® Imager and the ratio of p-EGFR/total EGFR can be generated by the machine. The Her2 (Y1248) phosphorylation level (activity) of cells in each well were measured with MSD Kit named “Phospho-ErbB2 (Tyr1248) Assay Whole Cell Lysate Kit” according to the manufacturer’s instruction (MESO SCALE DISCOVERY, Cat# K151CLD-3). The assay is an electrochemiluminescent method (MESO SCALE DISCOVERY) for determining both phosphorylated and total Her2 of cells with an MSD SECTOR® Imager and then the ratio of p-Her2/total Her2 can be generated by the machine.

Ri-1 cells = experiment: BTK (wt) cell proliferation, Ri-1 (CellTiter-Glo, 72 h); conditions: Ri-1, 72 h, Ri-1 cells, 72 h, CellTiter-Glo; read-out: BTK WT Ri-1 GI50;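 also: viable cells quantified as cellular ATP luminescence, proliferation normalized to a time-zero plate and the DMSO control, compounds tested across a dilution series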
EGFR L858R&T790M = target: T3, EGFR L858R&T790M (Homo sapiens, UniProt P00533, L858R/T790M); experiment: EGFR L858R and T790M cellular phosphorylation inhibition in NCI-H1975 (MSD); conditions: NCI-H1975 cells, 4 h compound, p-EGFR(Y1068)/total EGFR; read-out: EGFR L858R and T790M mutation IC50;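 also: phosphorylated and total EGFR detected by electrochemiluminescence, cells exposed to compound in medium containing 1% FBS at 37 °C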
T3 construct: host or cells: NCI-H1975

[5] = target: T4, human EGFR exon 20 H773_V774insNPH (Homo sapiens, UniProt P00533, INS773NPH); experiment: EGFR Exon20 NPH insertion cellular phosphorylation inhibition (MSD pEGFR Y1068/total EGFR); conditions: Ba/F3 EGFR NPH ins cells, 4 h compound, p-EGFR(Y1068)/total EGFR;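 also: IL3-independent Ba/F3 cells with constitutively phosphorylated EGFR, compound exposure at 37 °C under 5% CO2, electrochemiluminescent MSD measurement of the p-EGFR to total EGFR ratio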
T4 construct: host or cells: Ba/F3

WT EGFR = target: T5, WT EGFR (Homo sapiens, UniProt P00533); experiment: WT EGFR cellular phosphorylation inhibition in A-431 (hEGF stimulated, MSD); conditions: A431 cells, 4 h compound, then 100 ng/ml hEGF 10 min;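 also: electrochemiluminescence read-out of EGFR Tyr1068 phosphorylation expressed as ratio to total EGFR, cells kept in medium with 1% FBS, compounds tested as a concentration series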
T5 construct: host or cells: A-431
Experimental: as §2, §3

Ba/F3 EGFR NPH ins cells = experiment: Cell proliferation, Ba/F3 EGFR NPH ins (CellTiter-Glo, 72 h); conditions: Ba/F3 EGFR, 72 h;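 also: IL3-independent cells carrying constitutively phosphorylated EGFR, compound dilution series, viable cells quantified by ATP luminescence, growth relative to DMSO wells after subtracting pre-dosing (day 0) baseline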
DB cells = experiment: BTK (wt) cell proliferation, DB (CellTiter-Glo, 72 h); conditions: Homo sapiens, DB, DB cells, CellTiter-Glo, read-out: Non-BCR activated DB GI50;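 also: DB cells in 384-well plates given a dilution series of compound, viable cells read by ATP luminescence, growth expressed versus DMSO control after subtracting a time-zero plate reading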
Experimental: as §1

[6] = Ba/F3 EGFR ASV ins, 72 h proliferation, read-out: EGFR Exon20 ASV insertion GI50
[7] = NCI-H1975, 72 h proliferation, read-out: EGFR L858R and T790M mutation GI50
[8] = A431, 72 h proliferation, read-out: EGFR WT A431 GI50
[9] = Ba/F3 EGFR NPH ins, 72 h proliferation, read-out: EGFR Exon20 NPH insertion GI50
[10] = read-out: EGFR Exon20 ASV insertion GI50 (nM)
[11] = read-out: EGFR L858R and T790M mutation GI50 (nM)
[12] = read-out: EGFR WT A431 GI50 (nM)
[13] = read-out: EGFR Exon20 NPH insertion GI50 (nM)

T4 sequence (P00533 with tags, fused parts or gaps INS773NPH): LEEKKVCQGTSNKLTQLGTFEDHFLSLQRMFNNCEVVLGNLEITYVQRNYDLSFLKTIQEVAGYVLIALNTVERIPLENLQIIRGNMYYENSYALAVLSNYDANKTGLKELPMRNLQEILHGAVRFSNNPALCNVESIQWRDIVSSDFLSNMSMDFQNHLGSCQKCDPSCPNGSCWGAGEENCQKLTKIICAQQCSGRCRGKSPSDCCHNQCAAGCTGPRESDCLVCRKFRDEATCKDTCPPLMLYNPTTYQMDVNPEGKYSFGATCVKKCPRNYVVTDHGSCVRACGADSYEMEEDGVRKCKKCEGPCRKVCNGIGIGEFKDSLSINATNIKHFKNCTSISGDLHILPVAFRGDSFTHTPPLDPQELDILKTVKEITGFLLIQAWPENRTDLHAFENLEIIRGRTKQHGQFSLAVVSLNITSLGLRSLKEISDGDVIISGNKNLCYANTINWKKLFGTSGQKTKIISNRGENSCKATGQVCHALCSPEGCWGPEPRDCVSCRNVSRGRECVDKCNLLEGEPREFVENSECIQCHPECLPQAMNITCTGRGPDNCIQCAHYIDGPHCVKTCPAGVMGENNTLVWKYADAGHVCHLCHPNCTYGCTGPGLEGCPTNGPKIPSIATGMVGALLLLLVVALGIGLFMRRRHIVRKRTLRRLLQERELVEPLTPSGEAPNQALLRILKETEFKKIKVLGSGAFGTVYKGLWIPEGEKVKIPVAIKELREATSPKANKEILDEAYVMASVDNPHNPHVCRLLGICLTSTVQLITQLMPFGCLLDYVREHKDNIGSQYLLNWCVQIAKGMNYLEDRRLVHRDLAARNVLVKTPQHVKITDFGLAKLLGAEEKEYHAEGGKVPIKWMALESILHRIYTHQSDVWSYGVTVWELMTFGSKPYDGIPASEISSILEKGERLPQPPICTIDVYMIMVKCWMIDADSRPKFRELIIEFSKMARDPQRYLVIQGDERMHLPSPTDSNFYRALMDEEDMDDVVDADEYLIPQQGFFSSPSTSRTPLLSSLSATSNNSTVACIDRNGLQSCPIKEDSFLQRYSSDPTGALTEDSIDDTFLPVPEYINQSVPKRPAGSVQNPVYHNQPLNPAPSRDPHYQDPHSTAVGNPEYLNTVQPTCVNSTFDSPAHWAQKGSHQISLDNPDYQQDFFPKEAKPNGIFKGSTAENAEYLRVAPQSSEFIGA
T2 sequence (P04626 with tags, fused parts or gaps INS775YVMA): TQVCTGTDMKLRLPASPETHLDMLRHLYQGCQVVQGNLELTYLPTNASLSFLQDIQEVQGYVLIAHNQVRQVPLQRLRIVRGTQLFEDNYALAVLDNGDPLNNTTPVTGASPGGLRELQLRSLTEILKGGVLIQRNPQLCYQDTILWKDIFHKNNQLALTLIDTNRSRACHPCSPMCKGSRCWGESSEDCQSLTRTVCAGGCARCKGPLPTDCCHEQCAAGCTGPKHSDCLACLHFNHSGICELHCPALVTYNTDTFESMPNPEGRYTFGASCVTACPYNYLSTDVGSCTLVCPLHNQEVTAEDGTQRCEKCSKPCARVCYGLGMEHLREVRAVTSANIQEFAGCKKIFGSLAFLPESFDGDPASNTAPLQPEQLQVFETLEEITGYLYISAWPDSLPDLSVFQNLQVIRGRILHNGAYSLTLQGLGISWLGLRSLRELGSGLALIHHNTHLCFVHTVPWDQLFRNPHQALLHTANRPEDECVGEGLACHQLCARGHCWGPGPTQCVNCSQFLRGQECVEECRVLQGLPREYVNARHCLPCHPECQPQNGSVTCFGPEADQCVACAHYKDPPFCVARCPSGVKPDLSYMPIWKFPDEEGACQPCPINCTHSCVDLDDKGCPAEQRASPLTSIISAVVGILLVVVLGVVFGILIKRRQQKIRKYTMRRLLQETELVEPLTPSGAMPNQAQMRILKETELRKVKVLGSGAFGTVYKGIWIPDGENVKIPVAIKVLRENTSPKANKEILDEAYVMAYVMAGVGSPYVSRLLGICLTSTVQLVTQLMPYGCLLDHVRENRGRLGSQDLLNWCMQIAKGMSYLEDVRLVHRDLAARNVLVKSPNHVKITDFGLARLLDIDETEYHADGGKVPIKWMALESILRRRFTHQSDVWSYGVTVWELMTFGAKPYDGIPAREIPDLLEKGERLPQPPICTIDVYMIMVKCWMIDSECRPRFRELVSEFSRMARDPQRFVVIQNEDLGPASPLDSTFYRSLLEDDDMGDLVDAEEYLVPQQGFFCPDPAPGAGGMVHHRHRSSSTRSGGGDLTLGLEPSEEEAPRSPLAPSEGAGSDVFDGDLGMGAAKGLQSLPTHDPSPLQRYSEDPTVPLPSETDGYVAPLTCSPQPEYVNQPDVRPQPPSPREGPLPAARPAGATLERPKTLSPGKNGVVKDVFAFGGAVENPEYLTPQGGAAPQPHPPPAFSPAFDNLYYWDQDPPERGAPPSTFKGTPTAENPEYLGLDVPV
T5 sequence (P00533 25-1210): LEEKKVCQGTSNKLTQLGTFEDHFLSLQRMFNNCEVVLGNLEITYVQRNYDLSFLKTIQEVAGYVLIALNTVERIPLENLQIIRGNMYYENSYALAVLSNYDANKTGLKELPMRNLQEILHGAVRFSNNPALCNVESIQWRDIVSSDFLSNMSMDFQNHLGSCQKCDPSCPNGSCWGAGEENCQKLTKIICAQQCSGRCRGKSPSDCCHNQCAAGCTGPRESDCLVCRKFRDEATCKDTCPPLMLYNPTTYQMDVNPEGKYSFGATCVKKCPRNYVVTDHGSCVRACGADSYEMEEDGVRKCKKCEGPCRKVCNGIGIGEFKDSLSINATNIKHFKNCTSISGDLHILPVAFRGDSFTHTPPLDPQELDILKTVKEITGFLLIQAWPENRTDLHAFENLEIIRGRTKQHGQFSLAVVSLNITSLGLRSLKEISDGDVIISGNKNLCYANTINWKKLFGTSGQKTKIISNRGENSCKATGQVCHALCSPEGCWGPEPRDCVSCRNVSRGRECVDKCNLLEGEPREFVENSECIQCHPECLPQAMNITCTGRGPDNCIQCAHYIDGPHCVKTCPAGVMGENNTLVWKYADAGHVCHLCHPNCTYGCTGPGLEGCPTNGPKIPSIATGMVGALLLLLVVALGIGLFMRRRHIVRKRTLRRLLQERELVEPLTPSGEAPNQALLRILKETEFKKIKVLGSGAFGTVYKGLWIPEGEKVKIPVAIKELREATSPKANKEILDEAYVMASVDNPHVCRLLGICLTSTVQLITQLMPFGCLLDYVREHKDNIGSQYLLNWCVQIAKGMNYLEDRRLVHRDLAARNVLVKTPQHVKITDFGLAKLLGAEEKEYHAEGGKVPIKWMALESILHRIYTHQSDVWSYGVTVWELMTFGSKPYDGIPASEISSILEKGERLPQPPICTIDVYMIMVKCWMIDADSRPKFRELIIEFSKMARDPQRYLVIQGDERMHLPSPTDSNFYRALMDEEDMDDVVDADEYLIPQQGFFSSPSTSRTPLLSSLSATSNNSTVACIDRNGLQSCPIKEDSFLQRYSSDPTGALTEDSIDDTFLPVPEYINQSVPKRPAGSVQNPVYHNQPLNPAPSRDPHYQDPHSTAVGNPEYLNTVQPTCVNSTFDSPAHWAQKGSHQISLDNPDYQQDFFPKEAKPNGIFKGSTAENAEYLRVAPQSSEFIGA
T1 sequence (P00533 with tags, fused parts or gaps INS769ASV): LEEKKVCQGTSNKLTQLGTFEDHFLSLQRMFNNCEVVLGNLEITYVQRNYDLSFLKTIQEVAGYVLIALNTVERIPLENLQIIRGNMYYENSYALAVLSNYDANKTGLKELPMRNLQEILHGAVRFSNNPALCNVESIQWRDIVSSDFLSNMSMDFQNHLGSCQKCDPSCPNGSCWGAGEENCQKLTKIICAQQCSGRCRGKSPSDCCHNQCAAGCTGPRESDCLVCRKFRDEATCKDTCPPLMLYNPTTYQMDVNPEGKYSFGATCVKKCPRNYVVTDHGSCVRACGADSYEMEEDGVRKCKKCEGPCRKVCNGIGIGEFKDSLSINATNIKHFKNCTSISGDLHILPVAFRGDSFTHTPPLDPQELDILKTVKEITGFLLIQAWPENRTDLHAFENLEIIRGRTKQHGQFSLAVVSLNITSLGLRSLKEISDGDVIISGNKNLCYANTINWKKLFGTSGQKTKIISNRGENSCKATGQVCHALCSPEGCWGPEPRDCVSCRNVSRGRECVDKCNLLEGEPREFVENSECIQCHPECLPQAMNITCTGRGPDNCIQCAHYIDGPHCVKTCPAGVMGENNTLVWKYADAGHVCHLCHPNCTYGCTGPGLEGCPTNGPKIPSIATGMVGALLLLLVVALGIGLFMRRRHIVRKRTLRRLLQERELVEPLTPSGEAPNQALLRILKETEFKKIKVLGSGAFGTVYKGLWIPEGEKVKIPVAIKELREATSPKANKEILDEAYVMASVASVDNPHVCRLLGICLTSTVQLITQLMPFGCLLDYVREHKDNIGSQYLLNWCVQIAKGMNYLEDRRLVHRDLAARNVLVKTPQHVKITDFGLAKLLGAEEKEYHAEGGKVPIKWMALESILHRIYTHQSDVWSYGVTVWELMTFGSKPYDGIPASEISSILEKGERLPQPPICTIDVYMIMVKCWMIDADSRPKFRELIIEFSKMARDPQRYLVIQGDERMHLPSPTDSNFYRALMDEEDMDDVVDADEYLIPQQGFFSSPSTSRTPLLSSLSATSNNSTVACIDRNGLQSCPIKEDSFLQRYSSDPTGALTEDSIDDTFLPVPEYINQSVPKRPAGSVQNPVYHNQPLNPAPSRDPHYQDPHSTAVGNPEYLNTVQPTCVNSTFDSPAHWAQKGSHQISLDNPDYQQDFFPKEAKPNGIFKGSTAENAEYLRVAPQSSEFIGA

Structure (SMILES)	IC50 [1] [nM]	GI50 (Ba/F3 EGFR ASV ins cells; [6]) [nM]	GI50 [2, 7] [nM]	GI50 [3] [nM]	GI50 (TMD-8 cells) [nM]	GI50 (WT EGFR cell line A-431; [8]) [nM]	GI50 (OCI-LY-10 cells) [nM]	IC50 [4] [nM]	GI50 (Ri-1 cells) [nM]	IC50 (EGFR L858R&T790M) [nM]	IC50 [5] [nM]	IC50 (WT EGFR) [nM]	GI50 (Ba/F3 EGFR NPH ins cells; [9]) [nM]	GI50 (DB cells) [nM]	GI50 (Ba/F3 EGFR ASV ins cells; [10]) [nM]	GI50 [2, 11] [nM]	GI50 (WT EGFR cell line A-431; [12]) [nM]	GI50 (Ba/F3 EGFR NPH ins cells; [13]) [nM]
C=CC(=O)Nc1cc(Nc2ncnc(Nc3cc(F)c(F)cc3C(C)(O)CC)n2)c(OC)cc1N1CCC[C@@H]1CN(C)C (stereo partly drawn) [Compound 57, N-(5-(4-(4,5-difluoro-2-(2-hydroxybutan-2-yl)phenylamino)-1,3,5-triazin-2-ylamino)-2-((R)-2-((dimethylamino)methyl)pyrrolidin-1-yl)-4-methoxyphenyl)acrylamide]	7.1	11.4	1.3	18.7	22.9	6.1	72	2.6	34.6	0.4	8.5	10.5	14.8	> 3000				
C=CC(=O)Nc1cc(Nc2nccc(Nc3cc(Cl)c(Cl)cc3C(C)(C)O)n2)c(OC)cc1N1CC[C@@H]1CN(C)C [Compound 71, (R)-N-(5-(4-(4,5-dichloro-2-(2-hydroxypropan-2-yl)phenylamino)pyrimidin-2-ylamino)-2-(2-((dimethylamino)methyl)azetidin-1-yl)-4-methoxyphenyl)a crylamide]	31.1	89.8	8.3	86.2	4.8	34.9	12.4	19.6	23.5	1.3	51	213	74.7	2950				
C=CC(=O)Nc1cc(Nc2ncnc(Nc3cc(F)c(F)cc3C(C)(O)CC)n2)c(OC)cc1N1CC[C@@H]2CN(C)C[C@@H]21 (stereo partly drawn) [Compound 47, N-(5-(4-(4,5-difluoro-2-(2-hydroxybutan-2-yl)phenylamino)-1,3,5-triazin-2-ylamino)-4-methoxy-2-((3aR,6aR)-5-methylhexahydropyrrolo[3,4-b]pyrrol-1(2H)-yl)phenyl) acrylamide]	10.1	22.1	1.9	34.1	55.3	10.9	775	4.4	208	0.3	5.6	23.8	27.1	> 3000				
C=CC(=O)Nc1cc(Nc2ncnc(Nc3cc(C4CC4)c(F)cc3C(C)(C)O)n2)c(OC)cc1N(C)CCN(C)C [Compound 75, N-(5-(4-(5-cyclopropyl-4-fluoro-2-(2-hydroxypropan-2-yl)phenylamino)-1,3,5-triazin-2-ylamino)-2-((2-(dimethylamino)ethyl)(methyl)amino)-4-methoxyphenyl)acrylamide]	18.5	90.6	19.2	29.9	133	11.6	45.5	10.8	250	3.7	27.9	42.6	73	> 3000				
C=CC(=O)Nc1cc(Nc2nccc(Nc3cc(Cl)c(F)cc3C(C)(O)C(F)(F)F)n2)c(OC)cc1N1CC[C@@H](N(C)C)C1 (stereo partly drawn) [Compound 92, N-(5-(4-(5-chloro-4-fluoro-2-(1,1,1-trifluoro-2-hydroxypropan-2-yl)phenylamino)pyrimidin-2-ylamino)-2-((R)-3-(dimethylamino)pyrrolidin-1-yl)-4-methoxyphenyl) acrylamide]	71.2	92.1	4.9	212	63.8	40.6	228	26	146	1.7	79.9	765	84.7	1200				
C=CC(=O)Nc1cc(Nc2ncnc(Nc3cc(F)c(F)cc3C(C)(C)O)n2)c(OC)cc1N1CCC[C@@H]1CN(C)C [Compound 21, (R)-N-(5-(4-(4,5-difluoro-2-(2-hydroxypropan-2-yl)phenylamino)-1,3,5-triazin-2-ylamino)-2-(2-((dimethylamino)methyl)pyrrolidin-1-yl)-4-methoxyphenyl)acrylamide]	2.3	8.2	2.5	13.2	19.2	4.1	9.7	1.7	11.2	0.2	6.8	5.1	11.2	> 3000				
C=CC(=O)Nc1cc(Nc2ncc(C#N)c(Nc3cc(Cl)c(F)cc3C(C)(C)O)n2)c(OC)cc1N1CC[C@@H](N(C)C)C1 [Compound 85, (R)-N (5-(4-(5-chloro-4-fluoro-2-(2-hydroxypropan-2-yl)phenylamino)-5-cyanopyrimidin-2-ylamino)-2-(3-(dimethylamino)pyrrolidin-1-yl)-4-methoxyphenyl)acrylamide]	32.1	80.7	22.4	129	2.6	51.1	1.1	71.6	11	0.5	35.5	68.5	63.1	> 3000				
C=CC(=O)Nc1cc(Nc2nccc(Nc3cc(Cl)c(F)cc3C(C)(C)O)n2)c(OC)cc1N1C[C@H](F)C[C@@H]1CN(C)C [Compound 88, N-(5-(4-(5-chloro-4-fluoro-2-(2-hydroxypropan-2-yl)phenylamino)pyrimidin-2-ylamino)-2-((2R,4R)-2-((dimethylamino)methyl)-4-fluoropyrrolidin-1-yl)-4-methoxyphenyl) acrylamide formic acid salt]	7.5			31.2	6.49		1.57	4.5	12	0.5	10.1	27.8		> 3000	14	1.8	6.9	18.8
C=CC(=O)Nc1cc(Nc2ncnc(Nc3cc(Cl)c(F)cc3C3(O)CCC3)n2)c(OC)cc1N(C)CCN(C)C [Compound 72, N-(5-(4-(5-chloro-4-fluoro-2-(1-hydroxycyclobutyl)phenylamino)-1,3,5-triazin-2-ylamino)-2-((2-(dimethylamino)ethyl)(methyl)amino)-4-methoxyphenyl)acrylamide formic acid salt]	8			38.9	7.3		2.9	8.9	33.3	0.6	18.7	26.2		> 3000	42.3	4.1	10.4	46.1
